The record followed here is ChEMBL document CHEMBL4118243, “Synthesis, molecular modelling studies and biological evaluation of new oxoeicosanoid receptor 1 agonists” (Bioorg Med Chem, 2018).

The target of assay [1] is T1, Oxoeicosanoid receptor 1 (Homo sapiens, UniProt Q8TDS5). The experiment in a line: Agonist activity at human PK-tagged OXER1 expressed in CHOK1 cells assessed as EA-tagged beta-arrestin recruitment by beta-galactosidase enzyme fragment complementation assay relative to control. Type of assay: functional, cell-based. For orientation: Activated receptors often draw arrestin, which recruitment assays turn into a signal.
T1 sequence (Q8TDS5 whole entry, the tested form may be a part): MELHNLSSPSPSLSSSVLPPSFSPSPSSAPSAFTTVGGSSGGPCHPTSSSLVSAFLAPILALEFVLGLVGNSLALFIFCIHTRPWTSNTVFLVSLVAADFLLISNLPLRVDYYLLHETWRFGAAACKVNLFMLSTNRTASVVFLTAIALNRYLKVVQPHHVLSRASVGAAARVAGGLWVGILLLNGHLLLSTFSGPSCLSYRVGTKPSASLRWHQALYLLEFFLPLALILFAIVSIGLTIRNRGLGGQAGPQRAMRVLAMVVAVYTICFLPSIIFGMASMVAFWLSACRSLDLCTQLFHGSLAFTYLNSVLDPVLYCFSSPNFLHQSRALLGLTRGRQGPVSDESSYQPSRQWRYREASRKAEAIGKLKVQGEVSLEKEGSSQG

The target of assay [2] is T1, Oxoeicosanoid receptor 1. The experiment in a line: Agonist activity at human PK-tagged OXER1 expressed in CHOK1 cells assessed as EA-tagged beta-arrestin recruitment by beta-galactosidase enzyme fragment complementation assay. Type of assay: functional, cell-based.

Bounds are passed on as bounds.

Take `CC/C=C\C/C=C\C/C=C\C/C=C\C=C\C(=O)CCCC(=O)O`: the Emax (commonly the maximal effect, on the per cent scale that the assay sets) at Oxoeicosanoid receptor 1 [1] was 80%. Moreover, the EC50 (in general, the concentration needed to bring the measured effect to its halfway point) at Oxoeicosanoid receptor 1 [2] came to 0.38 µM.
For the molecule `CC/C=C\C/C=C\C/C=C\C/C=C\C/C=C\C=C\C(=O)CCC(=O)O`, the Emax at Oxoeicosanoid receptor 1 [1] worked out at 23%. Moreover, the EC50 at Oxoeicosanoid receptor 1 [2] is more than 100 µM.
The matching figures for `CCCCC/C=C\C/C=C\C/C=C\C=C\C(=O)CCCC(=O)OC`: 133% and 1.54 µM.
Consider `CC/C=C\C/C=C\C/C=C\C/C=C\C/C=C\C=C\C(=O)CCC(=O)OC`, for which the Emax on Oxoeicosanoid receptor 1 [1] is 64%. Moreover, the EC50 on Oxoeicosanoid receptor 1 [2] was more than 100 µM.
For `CCCCC/C=C\C/C=C\C/C=C\C=C\C(=O)CCCC(=O)O` [5-OXO-ETE], in that order: 100% and 0.22 µM.
Take `CC/C=C\C/C=C\C/C=C\C/C=C\C=C\C(=O)CCCC(=O)OC`: the Emax at Oxoeicosanoid receptor 1 [1] is 119%. Also, the EC50 on Oxoeicosanoid receptor 1 [2] amounted to 2.08 µM.
